From article PMC3753754, “Andrographis paniculata Extract and Andrographolide Modulate the Hepatic Drug Metabolism System and Plasma Tolbutamide Concentrations in Rats” (Evidence-based Complementary and Alternative Medicine : eCAM, 2013)
Marks after values point to notes of the source that are not given here.

Legend:
[1] = Plasma aminotransferases (AST, ALT) of treated rats; type: in vivo, Sprague-Dawley rats
Protocol: All animals were killed by exsanguination via the abdominal aorta while under carbon dioxide (CO2/O2, 70%/30%) anesthesia. Heparin was used as the anticoagulant. Plasma was separated from the blood by centrifugation (1750 ×g) at 4°C for 20 min. The liver from each animal was excised, weighed, and stored at −80°C. This research has received ethical approval from the institutional animal ethics committee of China Medical University, Taichung, Taiwan.
Plasma glucose was determined by use of enzymatic kits purchased from Audit Diagnostics Co. (Cork, Ireland). Plasma aspartate aminotransferase (AST) and alanine aminotransferase (ALT) activities were measured by using commercial kits purchased from Randox Laboratories (Antrim, UK).

CYP2C6/11 = experiment: Hepatic CYP2C6 and CYP2C11 protein expression in high-fat diet-induced obese mice; type: in vivo, C57BL/6 mice; details: 2 g/kg APE or 50 mg/kg AND daily for 5 days
Protocol: Eleven-month-old high-fat diet-fed (45% of energy from fat; Research Diet Inc., New Brunswick, NJ) C57BL/6 mice were obtained from the National Health Research Institute (Miaoli, Taiwan). Control mice were orally administered 0.5% methyl cellulose (10 mL/kg). […] After the 5th daily dose, the mice were deprived of food overnight. On day 6, a 20 mg/kg oral dose of tolbutamide, as a solution in Cremophor EL/ethanol/water (30/10/60, v/v/v), was administered to each mouse. Thirty minutes later, a 1 g/kg dose of glucose, as a solution in water, was administered orally according to the method described by Zong et al.. Serial blood samples were collected up to 8 h after the glucose dose from each mouse. The animals were then killed by exsanguination and the livers collected.
Aliquots of microsomal protein (10 μg) were electrophoresed in an SDS-polyacrylamide gel, and proteins were then transferred to polyvinylidene fluoride membranes. After blocking, membranes were hybridized with antibodies to CYP1A1, CYP1A2, CYP2C6, CYP2C11, CYP2D1, CYP2E1, CYP3A1, and CYP3A2.

CYP2E1 = experiment: p-Nitrophenol 6-hydroxylation in liver microsomes of treated rats; type: in vivo; details: rat liver microsomes; oral 2 g/kg APE or 50 mg/kg AND daily for 5 days
Protocol: Liver was homogenized (1 : 4, w/v) in an ice-cold potassium phosphate buffer (pH 7.4) containing 7.4 mM K2HPO4, 2.6 mM KH2PO4, 1.15% KCl, and 1 mM phenylmethylsulfonyl fluoride (PMSF). Tissue homogenates were centrifuged at 10,000 ×g for 30 min at 4°C. The resulting supernatant was then centrifuged at 105,000 ×g for 1 h at 4°C. The microsomes thus obtained were washed several times to get rid of possible tolbutamide contamination and this can avoid tolbutamide interference of CYP activity, and the microsomes were then suspended in potassium phosphate buffer (pH 7.7) containing 7.5 mM K2HPO4, 14.5 mM KH2PO4, and 1 mM EDTA. […] Metabolites of each CYP enzyme reaction were determined by LC/MS as reported previously. The contents of total CYP and cytochrome b5 were quantified by the method of Omura and Sato [29]. Enzyme activity is expressed as picomoles of metabolite formed per minute per milligram of protein. The NADPH-CYP reductase activity was measured as described by Phillips and Langdon with the use of cytochrome c as the substrate. The microsomal protein concentration was determined by using a Coomassie Plus protein assay kit (Pierce, Rockford, IL, USA).

[2] = rats, oral 2 g/kg APE or 50 mg/kg AND daily for 5 days, mean ± SD, n = 5

- Hepatic expression of CYP2C6/11 (CYP2C6/11): induced
- p-Nitrophenol 6-hydroxylase (2E1) (CYP2E1): 91.1 ± 13.0^b pmol/min/mg protein
Compound: C=C1CC[C@@H]2[C@](C)(CO)[C@H](O)CC[C@@]2(C)[C@@H]1C/C=C1/C(=O)OC[C@H]1O [andrographolide, Andrographolide]
- Effect on rat liver function ([1]; 2 g/kg APE and 50 mg/kg AND, plasma AST and ALT): no deleterious effect
- Plasma aminotransferases, ALT [1, 2]: 15.8 ± 8.2 U/L
- Plasma aminotransferases, AST [1, 2]: 27.7 ± 4.4 U/L
